Test results from patent US20080299239A1, “Inhibitor of Glucose Absorption and Method for Producing the Same” (NICHIREI FOODS INC., priority 2003, published 2008).

Tested on: Caco-2 cells
Experiment: Test of glucose uptake by cultured Caco-2 cells derived from human intestinal tract
Format: cell-based
Settings: 250 μg/ml, 15 min preincubation, 10 min incubation, differentiated Caco-2 cells; for glucose transportation (3H-labeled glucose uptake): FIG. 1, relative to control; for 3-O-methyl glucose transportation (3H-labeled uptake): FIG. 2, relative to control
Method: Cultured Caco-2 cells derived from human intestinal tracts were monolayer-cultured on a plate for about 10 days and then differentiated. A DMEM medium containing 10% fetal calf serum was used. Pigment 1 and pigment 2 (250 μg/ml each) were added to the differentiated Caco-2 cells, the resultants were preincubated for 15 minutes, and ^3H-labeled glucose or 3-O-methyl glucose was then added thereto, followed by incubation for 10 minutes. ^3H incorporated into the cells was analyzed to determine the amount of glucose or methyl glucose transported.

Row | Compound | glucose transportation (3H-labeled glucose uptake) | 3-O-methyl glucose transportation (3H-labeled uptake)
1 | C[C@@H]1O[C@@H](Oc2cc3c(O)cc(O)cc3[o+]c2-c2ccc(O)c(O)c2)[C@H](O)[C@H](O)[C@H]1O.[Cl-] [pigment 1, cyanidin-3-rhamnoside] | specifically inhibited | specifically inhibited
2 | CC1O[C@@H](Oc2cc3c(O)cc(O)cc3[o+]c2-c2ccc(O)cc2)[C@@H](O)C(O)[C@H]1O (stereo partly shown) [pigment 2, pelargonidin-3-rhamnoside] | specifically inhibited | specifically inhibited
